Measured values reported in PMC12654597, “Dawson- and Lindqvist-Type Hybrid Polyoxometalates: Synthesis, Characterization and Ca^2+-ATPase Inhibition Potential” (Molecules, 2025).
pIC50: −log10 of the molar value. Where two headings read alike, the source gives them in different places.

How the values were obtained:
[1] = target: Ca^2+-ATPase; conditions: literature values for known P-type ATPase inhibitors; cited from earlier work
[2] = target: T1, sarcoplasmic reticulum (SR) Ca^2+-ATPase (Oryctolagus cuniculus, UniProt P04191); conditions: cited from earlier work; for pIC50: same experimental model, method and conditions
T1 construct: The experiments were performed with isolated sarcoplasmic reticulum vesicles (SRVs); from tissue; host or cells: rabbit skeletal muscle sarcoplasmic reticulum vesicles

[3] = target: T1, sarcoplasmic reticulum (SR) Ca^2+-ATPase; experiment: Sarcoplasmic reticulum Ca2+-ATPase activity, coupled enzyme pyruvate kinase/lactate dehydrogenase assay; assay type: biochemical, rabbit; conditions: for pIC50: SR vesicles from rabbit skeletal muscle, pH 7.0, 25 °C, uncoupled activity (A23187), triplicate
Excerpt: In order to evaluate the inhibition potential for each of the POMs compounds regarding the Ca^2+-ATPase activity, increasing concentrations of each POM and a control without the presence of the inhibitor were used in order to determine the IC50 values. For each of these assays, an absorbance versus time kinetic is obtained. In the absence of the POM, the control assay was obtained—that is, a kinetic with a higher slope, while by increasing the concentrations of the POMs, lower enzymatic kinetic slopes were found due to the inhibition of the ATPase activity (Figure S1).
Using this method, the effects of the inhibitors can be observed in real time and recorded within 2 to 5 min upon addition of the inhibitor, as described previously. […] For each compound, the equation governing the trendline of this can be solved for 50% in order to determine the IC50 value.
The sarcoplasmic reticulum vesicles (SRV) that contain the Ca^2+-ATPase was previously prepared from rabbit skeletal muscles as described elsewhere. The vesicles were suspended in 0.1 M KCl, 10 mM HEPES (pH 7.0), diluted 1:1 with 2.0 M sucrose, and frozen in liquid nitrogen for storage at −80 °C. […] Stock solutions of the POMs compounds (1 mM) were freshly prepared by dissolving the solid compound in miliQ water and keeping the solution at room temperature before use.
For carrying out the determination of Ca^2+-ATPase activity assays, the following medium was prepared: 25 mM HEPES (pH 7.0), 100 mM KCl, 5 mM MgCl2 and 50 µM CaCl2.
The experiments were performed with isolated sarcoplasmic reticulum vesicles (SRVs) previously diluted to 1 mg/mL with a sucrose concentration of 0.25 M (Figure 11). 0.8 mL of medium described above was added into a quartz cuvette. 0.42 mM phosphoenolpyruvate (PEP), 18 IU lactate dehydrogenase, 7.5 IU 155 pyruvate kinase, and 2.5 mM ATP without (control) or with increasing concentrations of POMs were added to this medium. […] The absorbance of the solution was measured spectrophotometrically at 340 nm, 25 °C, and an auto zero was performed. Subsequently, 0.25 mM NADH was added, allowing the absorbance value to stabilize to about 1.3 O.D. The assay begins after the addition of 10 μg/mL of Ca^2+-ATPase (basal activity) and one minute after ionophore A23187 (calcimycin) 4% (w/w) was added (uncoupled activity), and the kinetics followed for about 2 min in the absence or in the presence of increasing concentrations of POMs, from 0 to 15 μM for compound 1 and from 0 to 80 μM for compound 2. […]
For each experimental condition, the experiments were always performed in triplicate. Therefore, the determination of Ca^2+-ATPase activity without and with the inhibitor was made using a continuous enzymatic method using the measurement of absorbance versus time (Figure S1), as described elsewhere.

T1 sequence (P04191 1-994 isoform P04191-2): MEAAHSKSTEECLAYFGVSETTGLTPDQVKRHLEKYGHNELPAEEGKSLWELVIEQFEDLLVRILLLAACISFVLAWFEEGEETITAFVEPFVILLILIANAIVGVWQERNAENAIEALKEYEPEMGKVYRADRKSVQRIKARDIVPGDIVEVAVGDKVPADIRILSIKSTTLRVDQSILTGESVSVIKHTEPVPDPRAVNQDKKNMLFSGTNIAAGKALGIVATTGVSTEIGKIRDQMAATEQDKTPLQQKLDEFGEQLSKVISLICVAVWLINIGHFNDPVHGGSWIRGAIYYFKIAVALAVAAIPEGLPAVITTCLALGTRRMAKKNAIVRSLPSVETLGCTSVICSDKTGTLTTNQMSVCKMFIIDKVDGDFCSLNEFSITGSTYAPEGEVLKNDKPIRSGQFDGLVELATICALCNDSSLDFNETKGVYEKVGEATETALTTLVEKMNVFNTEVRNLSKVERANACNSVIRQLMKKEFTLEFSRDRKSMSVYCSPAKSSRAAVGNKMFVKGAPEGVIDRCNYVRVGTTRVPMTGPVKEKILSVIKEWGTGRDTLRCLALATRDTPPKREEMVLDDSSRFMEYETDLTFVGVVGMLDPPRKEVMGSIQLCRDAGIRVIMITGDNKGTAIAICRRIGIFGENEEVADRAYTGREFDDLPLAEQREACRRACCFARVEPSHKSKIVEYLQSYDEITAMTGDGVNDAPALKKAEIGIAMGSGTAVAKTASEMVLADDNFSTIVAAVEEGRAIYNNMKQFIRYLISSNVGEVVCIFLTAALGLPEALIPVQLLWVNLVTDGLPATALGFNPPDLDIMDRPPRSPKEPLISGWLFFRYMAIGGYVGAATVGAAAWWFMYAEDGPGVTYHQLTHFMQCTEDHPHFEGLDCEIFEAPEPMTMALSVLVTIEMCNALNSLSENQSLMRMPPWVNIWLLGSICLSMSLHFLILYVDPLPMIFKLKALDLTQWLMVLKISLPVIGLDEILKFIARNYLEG

## CC(=O)C1=C(O)[C@@H]2[C@H]3c4c[nH]c5cccc(c45)C[C@H]3C(C)(C)N2C1=O [CPA, cyclopiazonic acid]
[1]
  pIC50: 6.70 to 7.00

## C/C=C(/C)C(=O)O[C@H]1C(C)=C2[C@H]([C@@H]1OC(=O)CCCCCCC)[C@@](C)(OC(C)=O)C[C@H](OC(=O)CCC)[C@@]1(O)[C@H]2OC(=O)[C@@]1(C)O [TG, thapsigargin]
[1]
  pIC50: 7.54 to 9.00

## [O]=[V]([OH])([OH])[O][V]1(=[O])[O][V]2(=[O])[O][V](=[O])([O][V](=[O])([OH])[OH])[O][V](=[O])([O]2)[O][V]2(=[O])[O][V](=[O])([O][V](=[O])([OH])[OH])[O][V](=[O])([O]1)[O]2 (stereo not shown) [V10, decavanadate]
[2]
  pIC50: 4.82

## Cc1ccc(-c2cc(C(F)(F)F)nn2-c2ccc(S(N)(=O)=O)cc2)cc1 [celecoxib]
[1]
  pIC50: 4.46

## (C2H8N1)6[V2Mo18O62].3H2O [compound 1]
[3]
  pIC50: 5.47
[3]; ratio of IC50 values, compound 1 vs compound 2
  fold inhibition potential regarding ATPase activity relative to compound 2: about 13 fold

## (C4H16N3)4[V2W4O19]3.12H2O [compound 2]
[3]
  pIC50: 4.35
[3]; comparison of IC50 values, compound 2 vs TeW6
  Ca^2+-ATPase inhibition potency relative to Anderson type TeW6: four times more potent

## metformin-decavanadate [Metf-V10]
[2]; metformin-decavanadate vs V10
  IC50 ATPase inhibition value relative to V10 alone: six times higher
[2]
  pIC50: 4.06
